From ChEMBL document CHEMBL1144124, “New cytotoxic 1-azaanthraquinones and 3-aminonaphthoquinone from the stem bark of Goniothalamus marcanii” (1999)

What was measured:
Type in all cases: functional
[1] = tested on: MCF7; experiment: Cytotoxicity against human MCF7 cells after 48 hrs by SRB assay; conditions: MCF7, 48 h, read-out: ED50 (the source's name)
[2] = tested on: U-251; experiment: Cytotoxicity against human U251 cells after 48 hrs by SRB assay; conditions: U-251, 48 h, read-out: ED50 (the source's name)
[3] = tested on: A549; experiment: Cytotoxicity against human A549 cells after 48 hrs by SRB assay; conditions: A549, 48 h, read-out: ED50 (the source's name)
[4] = Cytotoxicity against human RPMI cells after 48 hrs by SRB assay; conditions: read-out: ED50 (the source's name)
[5] = tested on: HT-29; experiment: Cytotoxicity against human HT-29 cells after 48 hrs by SRB assay; conditions: HT-29, 48 h, read-out: ED50 (the source's name)

Compound	EC50 [1]	EC50 [2]	EC50 [3]	EC50 [4]	EC50 [5]
CC(=O)C1=C(N)C(=O)c2c(O)cccc2C1=O	2600 nM	3030 nM	2600 nM	3030 nM	–
COc1c(C)c2c([nH]c1=O)C(=O)c1ccccc1C2=O [DIELSIQUINONE]	110 nM	370 nM	110 nM	110 nM	1120 nM
Cc1cc(=O)[nH]c2c1C(=O)c1ccccc1C2=O [MARCANIN A]	420 nM	840 nM	420 nM	420 nM	420 nM
COc1c(C)c2c(n(C)c1=O)C(=O)c1ccccc1C2=O [MARCANIN B]	180 nM	1400 nM	350 nM	700 nM	2120 nM
COc1c(CO)c2c(n(C)c1=O)C(=O)c1ccccc1C2=O [MARCANINE C]	1000 nM	–	1000 nM	670 nM	330 nM
COc1c(C)c2c([nH]c1=O)C(=O)c1cccc(O)c1C2=O [MARCANINE D]	80 nM	280 nM	40 nM	80 nM	350 nM
